Among the data in patent EP4624465A1, “COMPOUND SERVING AS DDR1 KINASE INHIBITOR, AND MEDICINE” (Nippon Shinyaku Co., Ltd., priority 2022, dated 2024) are IC50 values, retold here.

In this test the target is DDR1 kinase (Homo sapiens, UniProt Q08345). Kind of test: Evaluation of DDR1 kinase inhibition (LANCE Ultra TR-FRET kinase assay). It counts as biochemical. Also noted: purchased Carna Biosciences 08-113. Conditions: DDR1 protein 0.5 nM, LANCE Ultra ULight-poly GAT substrate, 2 hours at room temperature, duplicate; read-out: DDR-1 IC50. In general terms: TR-FRET usually uses a lanthanide donor and a delayed reading to cut background.

Broadly, the IC50 is the midpoint of a concentration-inhibition curve.

Sequence of DDR1 kinase (Q08345 19-876 isoform Q08345-2 limits assumed): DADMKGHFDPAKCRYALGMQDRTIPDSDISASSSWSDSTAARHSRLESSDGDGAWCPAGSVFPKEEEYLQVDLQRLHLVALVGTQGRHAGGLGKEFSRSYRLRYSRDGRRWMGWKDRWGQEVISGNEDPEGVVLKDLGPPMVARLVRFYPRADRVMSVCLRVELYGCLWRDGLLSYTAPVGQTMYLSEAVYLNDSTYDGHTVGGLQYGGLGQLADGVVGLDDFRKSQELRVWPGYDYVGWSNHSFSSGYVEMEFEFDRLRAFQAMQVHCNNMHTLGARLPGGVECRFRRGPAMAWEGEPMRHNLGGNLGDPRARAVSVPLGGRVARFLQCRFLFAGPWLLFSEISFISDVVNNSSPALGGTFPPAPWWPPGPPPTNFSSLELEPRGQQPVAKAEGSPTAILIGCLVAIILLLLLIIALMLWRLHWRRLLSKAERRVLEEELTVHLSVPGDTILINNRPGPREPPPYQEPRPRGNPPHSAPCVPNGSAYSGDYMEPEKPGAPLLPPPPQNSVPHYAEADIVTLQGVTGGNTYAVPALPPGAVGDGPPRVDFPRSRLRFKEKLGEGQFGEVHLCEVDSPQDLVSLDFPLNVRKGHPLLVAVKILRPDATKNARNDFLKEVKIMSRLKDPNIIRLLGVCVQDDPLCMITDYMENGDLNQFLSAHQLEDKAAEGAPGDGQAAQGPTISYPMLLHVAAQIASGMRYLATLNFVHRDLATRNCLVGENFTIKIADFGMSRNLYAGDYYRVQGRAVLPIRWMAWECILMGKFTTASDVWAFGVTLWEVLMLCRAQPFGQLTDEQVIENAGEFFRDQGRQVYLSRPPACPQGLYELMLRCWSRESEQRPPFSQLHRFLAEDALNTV

Turning to `CO[C@H]1CCN(C(=O)Cn2nc(C3CN(C(=O)c4cc(N)ncc4F)C3)c3ccccc32)C1` [Compound E-230, 2-{3-[1-(2-amino-5-fluoropyridine-4-carbonyl)azetidin-3-yl]-1H-indaaol-1-yl}-1-[(3S)-3-methoxypyrrolidin-1-yl]ethan-1-one], the IC50 came to 54 nM.

Consider `CC1(C)CCc2c(c(C3CN(C(=O)c4ccnc(N)n4)C3)nn2CC(=O)N2CCC[C@H]2C(F)(F)F)C1` [Compound E-295, 2-{3-[1-(2-aminopyrimidine-4-carbonyl)azetidin-3-yl]-5,5-dimethyl-4,5,6,7-tetrahydro-1H-indazol-1-yl}-1-[(2S)-2-(trifluoromethyl)pyrrolidin-1-yl]ethan-1-one], for which the IC50 came to 160 nM.

`Nc1cc(C(=O)N2CC(c3nn(CC(=O)N4CCC[C@H]4C(F)(F)F)c4ccc(F)c(Cl)c34)C2)ccn1` [Compound E-144, 2-{3-[1-(2-aminopyridine-4-carbonyl)azetidin-3-yl]-4-chloro-5-fluoro-1H-indazol-1-yl}-1-[(2S)-2-(trifluoromethyl)pyrrolidin-1-yl]ethan-1-one]: the IC50 was determined as 1.4 nM.

Take `Nc1cc(C(=O)N2CC(c3nn(CC(=O)N4CCC[C@H]4CO)c4ccccc34)C2)ccn1` [Compound E-219, 2-{3-[1-(2-aminopyridine-4-carbonyl)azetidin-3-yl]-1H-indazol-1-yl]-1-[(2S)-2-(hydroxymethyl)pyrrolidin-1-yl]ethan-1-one]: the concentration for half-maximal inhibition (IC50) was 160 nM.

In the case of `Nc1cc(C(=O)N2CC(c3nn(Cc4cn(CC5COC5)nn4)c4cccc(F)c34)C2)ccn1` [Compound E-38], the IC50 came to 190 nM.

As to `Nc1cc(C(=O)N2CC(c3nn(Cc4nc(-c5ccncc5)no4)c4cccc(F)c34)C2)ccn1` [Compound E-138, 4-[3-(4-fluoro-1-{(S-(pyridin-4-yl)-1,2,4-oxadiazol-5-yl]methyl}-1H-indazol-3-yl)azetidine-1-carbonyl]pyridin-2-amine], the IC50 turned out to be 50 nM.

With `CN(CC(F)(F)F)C(=O)Cn1nc(C2CN(C(=O)c3ccnc(N)n3)C2)c2cc(F)ccc21` [Compound E-293, 2-{3-[1-(2-aminopyrimidine-4-carbonyl)azetidin-3-yl]-5-fluoro-1H-indazol-1-yl]-N-methyl-N-(2,2,2-trifluoroethyl)acetamide], the IC50 is 26 nM.

As to `Nc1cc(C(=O)N2CC(c3nn(CC(=O)NC45CC(C4)C5)c4cccc(F)c34)C2)ccn1` [Compound E-239, 2-{3-[1-(2-aminopyridine-4-carbonyl)azetidin-3-yl]-4-fluoro-1H-indazol-1-yl}-N-{bicyclo[1.1.1]pentan-1-yl}acetamide], the concentration for half-maximal inhibition (IC50) turned out to be 3.3 nM.

`CC1(NC(=O)Cn2nc(C3CN(C(=O)c4ccnc(N)c4)C3)c3ccccc32)CCOCC1` [Compound E-209, 2-{3-[1-(2-aminopyridine-4-carbonyl)azetidin-3-yl]-1H-indazol-1-yl}-N-(4-methyloxan-4-yl)acetamide]: the IC50 came to 280 nM.

In the case of `Nc1cc(C(=O)N2CC=C(c3nn(CC(=O)N4CCC[C@H]4C(F)(F)F)c4ccccc34)CC2)c(F)cn1` [Compound E-47, 2-{3-[1-(2-amino-5-fluoropyridine-4-carbonyl)-1,2,3,6-tetrahydropyridin-4-yl]-1H-indazol-1-yl}-1-[(2S)-2-(trifluoromethyl)pyrrolidin-1-yl]ethan-1-one], the half-inhibitory concentration (IC50) was 140 nM.

As to `Cc1c(C(=O)N2CC(c3nn(CC(=O)N4CCC[C@H]4COC(F)(F)F)c4cncc(F)c34)C2)ccnc1N` [Compound E-44, 2-{3-[1-(2-amino-3-methylpyridine-4-carbonyl)azetidin-3-yl]-4-fluoro-1H-pyrazolo[3,4-c]pyridin-1-yl]-1-[(2S)-2-[(trifluoromethoxy)methyl]pyrrolidin-1-yl]ethan-1-one di-p-toluenesulfonate], the IC50 was 9.2 nM.

As for `Nc1cc(C(=O)N2CC(c3nn(CC(=O)N4CCO[C@@H](C(F)(F)F)C4)c4ccc(Cl)cc34)C2)ccn1` [Compound E-205, 2-{3-[1-(2-aminopyridine-4-carbonyl)azetidin-3-yl]-5-chloro-1H-indazol-1-yl}-1-[(2R)-2-(trifluoromethyl)morpholin-4-yl]ethan-1-one], the IC50 amounted to 1.6 nM.

Turning to `Nc1cc(C(=O)N2CC(c3nn(CC(=O)N4CCc5ccc(Br)cc54)c4cc(F)cc(F)c34)C2)ccn1` [Compound E-161], the half-inhibitory concentration (IC50) is 0.3 nM.

On to `Nc1cc(C(=O)N2CC(c3nn(CC(=O)N4CCc5ccc(C6CC6)cc54)c4cc(F)cc(F)c34)C2)ccn1` [Compound E-172], for which the IC50 turned out to be 1.3 nM.

Regarding `CC(C)N(C(=O)Cn1nc(C2CN(C(=O)c3cc(N)ncc3F)C2)c2ccccc21)C(C)C` [Compound E-267, 2-{3-[1-(2-amino-5-fluoropyridine-4-carbonyl)azetidin-3-yl]-1H-indazol-1-yl}-N,N-bis(propan-2-yl)acetamide], the IC50 is 6.2 nM.

Regarding `Nc1cc(C(=O)N2CCC(c3nn(Cc4ccc(C(F)(F)F)nc4)c4cccc(F)c34)CC2)ccn1` [Compound E-134, 4-[4-(4-fluoro-1-([6-(trifluoromethyl)pyridin-3-yl]methyl)-1H-indazol-3-yl)piperidine-1-carbonyl]pyridin-2-amine], the IC50 stood at 110 nM.

On to `Nc1nccc(C(=O)N2CC(c3nn(CC(=O)N4CCC[C@H]4C(F)(F)F)c4cc(F)c(F)cc34)C2)n1` [Compound E-283, 2-{3-[1-(2-aminopyrimidine-4-carbonyl)azetidin-3-yl]-5,6-diffuoro-1H-indazol-1-yl}-1-[(2S)-2-(trifluoromethyl)pyrrolidin-1-yl}ethan-1-one], for which the IC50 was found to be 4.5 nM.

Consider `CN1CCN(C(=O)Cn2nc(C3CN(C(=O)c4cc(N)ncc4F)C3)c3ccccc32)CC1` [Compound E-260], for which the IC50 is 240 nM.

Turning to `Nc1cc(C(=O)N2CC(c3nn(CC(=O)N4CC5CCC(C4)O5)c4ccccc34)C2)c(F)cn1` [Compound E-258, 2-{3-[1-(2-amino-5-fluoropyridine-4-carbonyl)azetidin-3-yl]-1H-indazol-1-yll-1-18-oxa-3-azabicyclo[3.2.1}octan-3-yl]ethan-1-one], the IC50 amounted to 74 nM.

Turning to `O=C(c1ccncc1F)N1CC(c2nn(CC(=O)N3CCC[C@H]3C(F)(F)F)c3cc(F)cc(F)c23)C1` [Compound E-142, 2-{4,6-difluoro-3-[1-(3-fluoropyridine-4-carbonyl)azetidin-3-yl]-1H-indazol-1-yl]-1-[(2S)-2-(trifluoromethyl)pyrrolidin-1-yl]ethan-1-one], the IC50 worked out at 7.9 nM.

`O=C(C1CCOCC1)N1CC(c2nn(CC(=O)N3CCC[C@H]3C(F)(F)F)c3cc(F)cc(F)c23)C1` [Compound E-162, 2-{4,6-difluoro-3-[1-(oxane-4-carbonyl)azetidin-3-yl]-1H-indazol-1-yl}-1-[(2S)-2-(trifluoromethyl)pyrrolidin-1-yl]ethan-1-one]: the concentration for half-maximal inhibition (IC50) amounted to 320 nM.

Consider `COCC(C)(C)NC(=O)Cn1nc(C2CN(C(=O)c3ccnc(N)c3)C2)c2ccccc21` [Compound E-208], for which the IC50 worked out at 170 nM.

For the compound `Nc1cc(C(=O)N2CC(c3nn(CC(=O)NC4CCOCC4)c4ccccc34)C2)ccn1` [Compound E-233, 2-{3-[1-(2-aminopyridine-4-carbonyl)azetidin-3-yl]-1H-indazol-1-yl}-N-(oxan-4-yl)acetamide], the 50% inhibitory concentration (IC50) was found to be 500 nM.

`Nc1cc(C(=O)N2CC(c3nn(CC#CC4CC4)c4cc(F)cc(F)c34)C2)ccn1` [Compound E-156]: the IC50 is 12 nM.

On to `Nc1cc(C(=O)N2CC(c3nn(CC(=O)N4CCCC(C(F)(F)F)C4)c4ccccc34)C2)c(F)cn1` (centres unmarked) [Compound E-259, 2-{3-[1-(2-amino-5-fluoropyridine-4-carbonyl)azetidin-3-yl}-1H-indazol-1-yl}-1-[3-(trifluoromethyl)piperidin-1-yl]ethan-1-one], for which the IC50 stood at 2.1 nM.

`Nc1cc(C(=O)N2CC(c3nn(Cc4noc(-c5ccc(F)cn5)n4)c4cccc(F)c34)C2)ccn1` [Compound E-153, 4-{3-(4-fluoro-1-{[5-(5-fluoropyridin-2-yl)-1,2,4-oxadiazol-3-yl]methyl}-1H-indazol-3-yl)azetidine-1-carbonyl]pyridin-2-amine]: the IC50 is 140 nM.

As for `Nc1cc(C(=O)N2CC(c3nn(CC(=O)NCCOC(F)(F)F)c4ccccc34)C2)ccn1` [Compound E-227, 2-{3-[1-(2-aminopyridine-4-carbonyl)azetidin-3-yl)-1H-indazol-1-yl}-N-[2-(trifluoromethoxy)ethyl]acetamide], the IC50 is 60 nM.

`Nc1cc(C(=O)N2CCC(c3nn(Cc4ccc(C(F)(F)F)cn4)c4cccc(F)c34)CC2)ccn1` [Compound E-9, 4-[4-(4-fluoro-1-{[5-(trifluoromethy)pyridin-2-yl]methyl}-1H-indazol-3-yl)piperidine-1-carbonyl]pyridin-2-amine]: the half-maximal inhibitory concentration (IC50) is 14 nM.

Consider `C[C@H]1COC[C@H](C)N1C(=O)Cn1nc(C2CN(C(=O)c3cc(N)ncc3F)C2)c2c(F)cc(F)cc21` [Compound E-182, 2-{3-[1-(2-amino-5-fluoropyridine-4-carbonyl)azetidin-3-yl]-4,6-difluoro-1H-indazol-1-yl}-1-[(3S,5S)-3,5-dimethylmorpholin-4-yl]ethan-1-one], for which the concentration for half-maximal inhibition (IC50) stood at 12 nM.

On to `CN(CC(F)(F)F)C(=O)Cn1nc(C2CN(C(=O)c3nc(N)ncc3F)C2)c2cc(F)ccc21` [Compound E-278, 2-{3-[1-(2-amino-5-fluoropyrimidine-4-carbonyl)azetidin-3-yl]-5-fluoro-1H-indazol-1-yl}-N-methyl-N-(2,2,2-trifluoroethyl)acetamide], for which the IC50 amounted to 6.9 nM.

Turning to `Cc1nccc2c1c(C1CN(C(=O)c3ccnc(NC4CC4)c3)C1)nn2CC(=O)N1CCC[C@H]1C(F)(F)F` [Compound E-93, 2-(3-{1-[2-(cyclopropylamino)pyridine-4-carbonyl]azetidin-3-yl}-4-methyl-1H-pyrazolo[4,3-c]pyridin-1-yl)-1-[(2S)-2-(trifluoromethyl)pyrrolidin-1-yl]ethan-1-one], the IC50 amounted to 110 nM.

As for `CC(C)(C)NC(=O)Cn1nc(C2CN(C(=O)c3cc(N)ncc3F)C2)c2ccccc21` [Compound E-199, 2-{3-[1-(2-amino-5-fluoropyridine-4-carbonyl)azetidin-3-yl]-1H-indazol-1-yl}-N-tert-butylacetamide], the IC50 was 5.2 nM.
